# Laboratory results as given in patent publication US7803930B2, “Antisense modulation of apolipoprotein B-expression” (Isis Pharmaceuticals, Inc., priority 2002, dated 2010).
# In the oligonucleotide strings, read from the 5' end, every base follows the letter of its sugar. An asterisk marks phosphorothioate; unmarked linkages are phosphodiester. Other units and linkages are bracketed, terminal groups are in braces. A string of capitals states the bases alone. e = 2'-O-(2-methoxyethyl) (MOE); [5mC] = 5-methylcytosine; d = 2'-deoxy (DNA)
# Test system: human apolipoprotein B mRNA
# Test: Inhibition of human apolipoprotein B mRNA levels in HepG2 cells, quantitative real-time PCR
# Type: cell-based
# Conditions: HepG2 cells; for % inhibition of apolipoprotein B mRNA levels: normalized to untreated control, average of two experiments
# How it was run: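 HepG2 cells at 80% confluency were transfected with antisense oligonucleotide using 3.75 μg/mL Lipofectin in Opti-MEM for 4-7 h and harvested 16-24 h after treatment. Apolipoprotein B mRNA was measured by real-time RT-PCR and normalized to GAPDH or RiboGreen total RNA. Percent inhibition came from untreated-control standard curves.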
# [1] = Table 13 gene walk, 50 nM, averages from two experiments
# [2] = Table 13 gene walk, 150 nM, averages from two experiments
# [3] = Table 17 variable gap, 50 nM, averages from three experiments
# [4] = Table 17 variable gap, 150 nM, averages from three experiments
# [5] = 50 nm oligonucleotide, variable deoxy gap position
# [6] = 150 nm oligonucleotide, variable deoxy gap position
substance,measurement,setting,value
308623 (eG*e[5mC]*eG*e[5mC]*e[5mC]*dT*dT*d[5mC]*dT*dG*d[5mC]*dT*dT*dG*dA*eG*eT*eT*eA*e[5mC]; antisense) [compound 308623],% INHIB 50 nm,[1],62%
same,% INHIB 150 nm,[2],71%
308624 (eT*e[5mC]*eG*e[5mC]*eG*d[5mC]*d[5mC]*dT*dT*d[5mC]*dT*dG*d[5mC]*dT*dT*eG*eA*eG*eT*eT; antisense) [compound 308624],% INHIB 50 nm,[1],69%
same,% INHIB 150 nm,[2],89%
308625 (e[5mC]*eT*eT*e[5mC]*eG*d[5mC]*dG*d[5mC]*d[5mC]*dT*dT*d[5mC]*dT*dG*d[5mC]*eT*eT*eG*eA*eG; antisense) [compound 308625],% INHIB 50 nm,[1],64%
same,% INHIB 150 nm,[2],83%
308626 (eA*eG*eT*e[5mC]*eT*dG*d[5mC]*dT*dT*d[5mC]*dG*d[5mC]*dG*d[5mC]*d[5mC]*eT*eT*e[5mC]*eT*eG; antisense) [compound 308626],% INHIB 50 nm,[1],38%
same,% INHIB 150 nm,[2],94%
308627 (eT*e[5mC]*eA*eG*eT*d[5mC]*dT*dG*d[5mC]*dT*dT*d[5mC]*dG*d[5mC]*dG*e[5mC]*e[5mC]*eT*eT*e[5mC]; antisense) [compound 308627],% INHIB 50 nm,[1],67%
same,% INHIB 150 nm,[2],89%
308628 (e[5mC]*e[5mC]*eT*e[5mC]*eA*dG*dT*d[5mC]*dT*dG*d[5mC]*dT*dT*d[5mC]*dG*e[5mC]*eG*e[5mC]*e[5mC]*eT; antisense) [compound 308628],% INHIB 50 nm,[1],61%
same,% INHIB 150 nm,[2],92%
308629 (eA*eG*e[5mC]*e[5mC]*eT*d[5mC]*dA*dG*dT*d[5mC]*dT*dG*d[5mC]*dT*dT*e[5mC]*eG*e[5mC]*eG*e[5mC]; antisense) [compound 308629],% INHIB 50 nm,[1],77%
same,% INHIB 150 nm,[2],95%
"308630 (GCCTCAGTCTGCTTCGCGCC; 0-10-10 MOE gapmer, phosphorothioate, chemistry not fully specified) [compound 308630]",% INHIB 50 nm,[3],69%
same,% INHIB 150 nm,[4],89%
"308631 (AGGTTACCAGCCACATGCAG; 0-10-10 MOE gapmer, phosphorothioate, chemistry not fully specified) [compound 308631]",% INHIB 50 nm,[5],74%
same,% INHIB 150 nm,[6],94%
"308632 (GCCTCAGTCTGCTTCGCACC; 0-10-10 MOE gapmer, phosphorothioate, chemistry not fully specified) [compound 308632]",% INHIB 50 nm,[5],41%
same,% INHIB 150 nm,[6],97%
"308633 (GCCTCAGTCTGCTTCGCGCC; 10-10-0 MOE gapmer, phosphorothioate, chemistry not fully specified) [compound 308633]",% INHIB 50 nm,[3],66%
same,% INHIB 150 nm,[4],83%
"308634 (AGGTTACCAGCCACATGCAG; 10-10-0 MOE gapmer, phosphorothioate, chemistry not fully specified) [compound 308634]",% INHIB 50 nm,[5],45%
same,% INHIB 150 nm,[6],67%
"308635 (GCCTCAGTCTGCTTCGCACC; 10-10-0 MOE gapmer, phosphorothioate, chemistry not fully specified) [compound 308635]",% INHIB 50 nm,[5],69%
same,% INHIB 150 nm,[6],93%
"308636 (GCCTCAGTCTGCTTCGCGCC; all C 5-methyl, all phosphorothioate, sugars by position not given here; further chemistry not fully specified) [compound 308636]",% INHIB 50 nm,[3],81%
same,% INHIB 150 nm,[4],91%
"308637 (AGGTTACCAGCCACATGCAG; 1-10-9 MOE gapmer, phosphorothioate, chemistry not fully specified) [compound 308637]",% INHIB 50 nm,[5],79%
same,% INHIB 150 nm,[6],95%
"308638 (GCCTCAGTCTGCTTCGCACC; 1-10-9 MOE gapmer, phosphorothioate, chemistry not fully specified) [compound 308638]",% inhibition of apolipoprotein B mRNA levels,12.5 nM oligonucleotide,42%
same,% inhibition of apolipoprotein B mRNA levels,37 nM oligonucleotide,73%
same,% inhibition of apolipoprotein B mRNA levels,75 nM oligonucleotide,91%
same,% inhibition of apolipoprotein B mRNA levels,150 nM oligonucleotide,96%
same,% inhibition of apolipoprotein B mRNA levels,300 nM oligonucleotide,97%
same,% INHIB 50 nm,[5],91%
same,% INHIB 150 nm,[6],94%
"308639 (GCCTCAGTCTGCTTCGCGCC; all C 5-methyl, all phosphorothioate, sugars by position not given here; further chemistry not fully specified) [compound 308639]",% INHIB 50 nm,[3],86%
same,% INHIB 150 nm,[4],94%
"308640 (AGGTTACCAGCCACATGCAG; 2-10-8 MOE gapmer, phosphorothioate, chemistry not fully specified) [compound 308640]",% INHIB 50 nm,[5],76%
same,% INHIB 150 nm,[6],96%
"308641 (GCCTCAGTCTGCTTCGCACC; 2-10-8 MOE gapmer, phosphorothioate, chemistry not fully specified) [compound 308641]",% INHIB 50 nm,[5],77%
same,% INHIB 150 nm,[6],89%
"308642 (GCCTCAGTCTGCTTCGCGCC; 3-10-7 MOE gapmer, phosphorothioate, chemistry not fully specified) [compound 308642]",% inhibition of apolipoprotein B mRNA levels,12.5 nM oligonucleotide,59%
same,% inhibition of apolipoprotein B mRNA levels,37 nM oligonucleotide,84%
same,% inhibition of apolipoprotein B mRNA levels,75 nM oligonucleotide,91%
same,% inhibition of apolipoprotein B mRNA levels,150 nM oligonucleotide,97%
same,% inhibition of apolipoprotein B mRNA levels,300 nM oligonucleotide,98%
same,% INHIB 50 nm,[3],85%
same,% INHIB 150 nm,[4],95%
"308643 (antisense AGGTTACCAGCCACATGCAG; 3-10-7 2'-MOE gapmer, phosphorothioate, chemistry not fully specified) [compound 308643]",% INHIB 50 nm,[5],56%
same,% INHIB 150 nm,[6],96%
"308644 (antisense GCCTCAGTCTGCTTCGCACC; 3-10-7 2'-MOE gapmer, phosphorothioate, chemistry not fully specified) [compound 308644]",% INHIB 50 nm,[5],71%
same,% INHIB 150 nm,[6],93%
"308645 (antisense GCCTCAGTCTGCTTCGCGCC; 4-10-6 2'-MOE gapmer, phosphorothioate, chemistry not fully specified) [compound 308645]",% INHIB 50 nm,[3],57%
same,% INHIB 150 nm,[4],98%
"308646 (antisense AGGTTACCAGCCACATGCAG; 4-10-6 2'-MOE gapmer, phosphorothioate, chemistry not fully specified) [compound 308646]",% INHIB 50 nm,[5],50%
same,% INHIB 150 nm,[6],76%
"308647 (antisense GCCTCAGTCTGCTTCGCACC; 4-10-6 2'-MOE gapmer, phosphorothioate, chemistry not fully specified) [compound 308647]",% INHIB 50 nm,[5],53%
same,% INHIB 150 nm,[6],86%
"308648 (antisense GCCTCAGTCTGCTTCGCGCC; 6-10-4 2'-MOE gapmer, phosphorothioate, chemistry not fully specified) [compound 308648]",% INHIB 50 nm,[3],78%
same,% INHIB 150 nm,[4],89%
"308649 (antisense AGGTTACCAGCCACATGCAG; 6-10-4 2'-MOE gapmer, phosphorothioate, chemistry not fully specified) [compound 308649]",% INHIB 50 nm,[5],68%
same,% INHIB 150 nm,[6],91%
"308650 (antisense GCCTCAGTCTGCTTCGCACC; 6-10-4 2'-MOE gapmer, phosphorothioate, chemistry not fully specified) [compound 308650]",% INHIB 50 nm,[5],74%
same,% INHIB 150 nm,[6],94%
"308651 (antisense GCCTCAGTCTGCTTCGCGCC; 7-10-3 2'-MOE gapmer, phosphorothioate, chemistry not fully specified) [compound 308651]",% inhibition of apolipoprotein B mRNA levels,12.5 nM oligonucleotide,57%
same,% inhibition of apolipoprotein B mRNA levels,37 nM oligonucleotide,76%
same,% inhibition of apolipoprotein B mRNA levels,75 nM oligonucleotide,84%
same,% inhibition of apolipoprotein B mRNA levels,150 nM oligonucleotide,90%
same,% inhibition of apolipoprotein B mRNA levels,300 nM oligonucleotide,88%
same,% INHIB 50 nm,[3],87%
same,% INHIB 150 nm,[4],88%
"308652 (antisense AGGTTACCAGCCACATGCAG; 7-10-3 2'-MOE gapmer, phosphorothioate, chemistry not fully specified) [compound 308652]",% INHIB 50 nm,[5],73%
same,% INHIB 150 nm,[6],95%
"308653 (antisense GCCTCAGTCTGCTTCGCACC; 7-10-3 2'-MOE gapmer, phosphorothioate, chemistry not fully specified) [compound 308653]",% INHIB 50 nm,[5],73%
same,% INHIB 150 nm,[6],89%
"308654 (antisense GCCTCAGTCTGCTTCGCGCC; 8-10-2 2'-MOE gapmer, phosphorothioate, chemistry not fully specified) [compound 308654]",% INHIB 50 nm,[3],81%
same,% INHIB 150 nm,[4],90%
"308655 (antisense AGGTTACCAGCCACATGCAG; 8-10-2 2'-MOE gapmer, phosphorothioate, chemistry not fully specified) [compound 308655]",% INHIB 50 nm,[5],84%
same,% INHIB 150 nm,[6],83%
"308656 (antisense GCCTCAGTCTGCTTCGCACC; 8-10-2 2'-MOE gapmer, phosphorothioate, chemistry not fully specified) [compound 308656]",% INHIB 50 nm,[5],37%
same,% INHIB 150 nm,[6],97%
"308657 (antisense GCCTCAGTCTGCTTCGCGCC; 9-10-1 2'-MOE gapmer, phosphorothioate, chemistry not fully specified) [compound 308657]",% INHIB 50 nm,[3],61%
same,% INHIB 150 nm,[4],78%
